Measurements taken from US10806121B2, “Animal litter containing a pheromone composition” (Sergeant's Pet Care Products, LLC, priority 2014, dated 2020).

Tested on: cats
Assay: Study 1: cat litter preference, pheromone-treated litter versus control litter
Assay type: in vivo
Conditions: for percentage preference (% of the cats using the treated litter): litter treated at 10 μg/3-lb (7.3 μg/kg), choice against control litter over 48 hours, 50% = no effect; for Litter Type Use, g, TRT (weights of litter after 2 days): treated litter box, 10 μg/3-lb, SE = 0.023; for Relative Difference, % / Significantly Different: treated versus control litter weight after 2 days; for effect on cats' litter preference: treated versus control litter, 48 hours
Protocol: In Study 1, four different treatments were tested: Androstenone (ANDRO); cat urinary pheromone, 3-mercapto-3-methyl-1-butanol (CAT); rabbit pheromone, 2-methylbut-2-enal (RP); and both the cat urinary pheromone and the rabbit pheromone (CAT+RP). 40 individual cats were used in this study to assess their preference to or aversion from a control litter versus a litter under one of the four treatments. Each treatment was tested with 10 cats. Litter was divided into 3 lb aliquots, and each aliquot was either used as a control or was mixed with a pheromone (or a pheromone combination) to be tested at a level of 10 μg/3-lb (or 7.3 μg/kg).
On Day 0, each cat was placed into an assigned chamber randomly placed with two litter boxes, one control and one treated. Each of the two litter boxes was weighed and the weight was recorded. The camera in the chamber was properly aligned to give a full view of the chamber and started taping on Day 0. On Day 1, 24 hours after the start of taping on Day 0, each of the two litter boxes in the chamber was weighed and the weight was recorded. On Day 2, 48 hours after the start of taping on Day 0, each of the two litter boxes in the chamber was again weighed. Litter can be disposed of after weighing on Day 2, and the camera was then turned off. The weights of the litter boxes over the 48 hours were used to determine whether the litter was used or not, and at which preference level.
The data were expressed as both a percentage preference (% of the cats using the treated litter in each treatment group) and by the weight of the litter (the litter gets heavier as it is soiled). It was expected that if the added pheromone had no effect on litter preference, 50% of the cats would use the treated litter and 50% would use the control litter. […] Further, the weight difference between a control litter or litter under treatment was used to show the relative strength of the effect of a particular treatment on cat's litter use behavior. During the study, some cats (N=3; 2 in CAT+RP and 1 in RP) spilled their litter and their data were unreliable and were not included.

SMILES: C[C@]12CCC(=O)C[C@@H]1CC[C@@H]1[C@@H]2CC[C@]2(C)C=CC[C@@H]12 [ANDRO, Androstenone]
- percentage preference (% of the cats using the treated litter): 50%
- Litter Type Use, g, TRT (weights of litter after 2 days): 0.571 g
- Relative Difference, %: −11%
- Significantly Different: No
- effect on cats' litter preference: did not provide any attraction

SMILES: CC(C)(S)CCO [CAT, 3-mercapto-3-methyl-1-butanol]
- percentage preference (% of the cats using the treated litter): 40%
- Litter Type Use, g, TRT (weights of litter after 2 days): 0.562 g
- Relative Difference, %: −43%
- Significantly Different: Yes
- effect on cats' litter preference: slight aversion
